# Test results reported in patent publication US20240067651A1 (Biohaven Therapeutics Ltd., priority 2019, published 2024).
# Read-outs that look alike come from different tables or passages of the source.
# Tests used:
# Caco-2 monolayer = experiment: Caco-2 Permeability Assay; format: in vitro ADME, human
# Method in brief: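 Caco-2 monolayers cultured 21 days (TEER >600 […]); test article at 10 μM in HBSS/HEPES pH 7.4 transport medium, dosed apical or basolateral, ±Pgp inhibitor. Incubated 90 min at 37 °C; both compartments quantified by LC-MS/MS. Papp (A→B, B→A), efflux ratio and % recovery calculated.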
# [1] = Stability in Simulated Gastric Fluid (SGF); format: in vitro ADME; parameters: key: % parent compound remaining relative to 0-minute sample
# Method in brief: (§1)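 Stability was tested at 37° C in pepsin-supplemented gastric fluid, pH 1.2, and pancreatin-supplemented intestinal fluid, pH 6.8, using 2 μg/mL final compound over 0–60 minutes. Remaining parent was quantified by LC-MS/MS and expressed as a percentage of time zero.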
# [2] = Stability in Simulated Intestinal Fluid (SIF); format: in vitro ADME; parameters: key: % parent compound remaining relative to 0-minute sample
# Method in brief: as §1
# Plasma Stability = format: in vitro ADME, human
# Method in brief: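 Compounds incubated at 1 μM in fresh human plasma for 1 hour at 37° C, then protein-precipitated with acetonitrile/formic acid containing internal standard. Remaining parent measured by LC-MS/MS in triplicate, expressed as percent of control remaining.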
# [3] = simulated gastric fluid, remaining at 1 h
# [4] = simulated intestinal fluid, remaining at 1 h
# [5] = % remaining after 1 h in simulated gastric fluid
# [6] = % remaining after 1 h in simulated intestinal fluid
# [7] = % remaining after 1 h in human plasma
Compound,Caco-2 Papp (Caco-2 monolayer; Caco-2 monolayer) [×10⁻⁶ cm/s],"human Plasma stability (Plasma Stability; human plasma, remaining at 1 h) [% remaining]","SGF [1, 3] [% remaining]","SIF [2, 4] [% remaining]","SGF [1, 5] [% remaining]","SIF [2, 6] [% remaining]",human Plasma stability (Plasma Stability; [7]) [% remaining],further results
"CC(C)OCCn1c(=S)[nH]c(=O)c2c1ccn2C(=O)NCCOCCNC(=O)[C@H](NC(=O)OC(C)(C)C)C(C)C [Example 378, tert-butyl N-[(1R)-2-methyl-1-({2-[2-({4-oxo-1-[2-(propan-2-yloxy)ethyl]-2-sulfanylidene-1H,2H,3H,4H,5H-pyrrolo[3,2-d]pyrimidine-5-carbonyl}amino)ethoxy]ethyl}carba-moyl)propyl]carbamate]",0.0903,93,,,,,,"SGF ([1]; simulated gastric fluid, bare number, unit or time not given): 98; SIF ([2]; simulated intestinal fluid, bare number, unit or time not given): 96"
"CC(C)OCCn1c(SCOC(=O)N(C)CCOCCNC(=O)[C@H](N)C(C)C)nc(=O)c2[nH]ccc21.O=C(O)C(F)(F)F [Example 391, trifluoroacetic acid ({4-oxo-1-[2-(propan-2-yloxy)ethyl]-1H,4H,5H-pyrrolo[3,2-d]pyrimidin-2-yl}sulfanyl) methyl N-(2-{2-[(2R)-2-amino-3-methylbutanamido]ethoxy}ethyl)-N-methylcarbamate]",3.65,1,96,70,,,,
"CC(C)OCCn1c(=S)n(COC(=O)OCCOCCOC(N)=O)c(=O)c2[nH]ccc21 [Example 403, 3-{[{{2-[2-(carbamoyloxy)ethoxy]ethoxy}car-bonyl)oxy]methyl}-1-[2-(propan-2-yloxy)ethyl]-2-sulfanylidene-1H,2H,3H,4H,5H-pyrrolo[3,2-d]pyrimidin-4-one]",0.477,,,,98,54,0,
"(2R)-2-amino-4-(methylsulfanyl)-N-[2-(2-{[{{4-oxo-1-[2-(propan-2-yloxy)ethyl]-2-sulfanylidene-1H,2H,3H,4H,5H-pyrrolo[3,2-d]pyrimidin-5-yl}methoxy)carbonyl]oxy}ethoxy)eth-yl]butanamide; trifluoroacetic acid [Example 390]",0.49,0,100,64,,,,
"(2R)-2-amino-4-methyl-N-[2-(2-{[{{4-oxo-1-[2-(propan-2-yloxy)ethyl]-2-sulfanylidene-1H,2H,3H,4H,5H-pyrrolo[3,2-d]pyrimidin-5-yl}methoxy)carbonyl]oxy}ethoxy)eth-yl]pentanamide; trifluoroacetic acid [Example 386]",0.077,23,93,86,,,,
"(2R)-2-amino-N-[2-(2-{[{{4-oxo-1-[2-(propan-2-yloxy)ethyl]-2-sulfanylidene-1H,2H,3H,4H,5H-pyrrolo[3,2-d]pyrimidin-5-yl}methoxy)carbonyl]oxy}ethoxy)eth-yl]-3-phenylpropanamide; trifluoroacetic acid [Example 388]",<1.99,1,97,73,,,,
"(2R)-2-{[(tert-butoxy)carbonyl]amino}-4-methyl-N-[2-(2-{[{{4-oxo-1-[2-(propan-2-yloxy)ethyl]-2-sulfanylidene-1H,2H,3H,4H,5H-pyrrolo[3,2-d]pyrimidin-5-yl}methoxy)carbonyl]oxy}ethoxy)eth-yl]pentanamide [Example 385]",3.87,1,94,84,,,,
"(2R)-2-{[(tert-butoxy)carbonyl]amino}-N-[2-(2-{[{{4-oxo-1-[2-(propan-2-yloxy)ethyl]-2-sulfanylidene-1H,2H,3H,4H,5H-pyrrolo[3,2-d]pyrimidin-5-yl}methoxy)carbonyl]oxy}ethoxy)eth-yl]-3-phenylpropanamide [Example 387]",4.5,1,92,75,,,,
"bis (trifluoroacetic acid) 5-{[2-({[(5-{[(2S)-2-amino-4-methylpentanoyl]oxy}penta-noyl)oxy]methyl}sulfanyl)-4-oxo-1-[2-(propan-2-yloxy)ethyl]-1H,4H,5H-pyrrolo[3,2-d]pyrimidin-5-yl]methoxy}-5-oxopentyl (2S)-2-amino-4-methylpentanoate [Example 346]",,,,,,,,Caco-2 Papp (Caco-2 monolayer; Caco-2): <0.0623 ×10⁻⁶ cm/s; SGF ([1]; % remaining @ 1 h): 97% remaining; SIF ([2]; % remaining @ 1 h): 7% remaining; human Plasma stability (Plasma Stability; % remaining @ 1 h): 98% remaining
"tert-butyl 3-(2-{[{{4-oxo-1-[2-(propan-2-yloxy)ethyl]-2-sulfanylidene-1H,2H,3H,4H,5H-pyrrolo[3,2-d]pyrimidin-5-yl}methoxy)carbonyl]oxy}eth-oxy)propanoate [Example 392]",0.12,1,95,71,,,,
"tert-butyl N-[2-(2-{[(1-{4-oxo-1-[2-(propan-2-yloxy)ethyl]-2-sulfanylidene-1H,2H,3H,4H,5H-pyrrolo[3,2-d]pyrimidin-5-yl}ethoxy)carbonyl]amino}eth-oxy)ethyl]carbamate [Example 375]",<0.175,99,89,99,,,,
"tert-butyl N-[2-(2-{[{{4-oxo-1-[2-(propan-2-yloxy)ethyl]-2-sulfanylidene-1H,2H,3H,4H,5H-pyrrolo[3,2-d]pyrimidin-5-yl}methoxy)carbonyl]amino}ethoxy) ethyl]carbamate [Example 372]",11.7,0,85,60,,,,
"trifluoroacetic acid ({4-oxo-1-[2-(propan-2-yloxy)ethyl]-1H,4H,5H-pyrrolo[3,2-d]pyrimidin-2-yl}sulfanyl)methyl N-[2-(2-aminoethoxy)ethyl]carbamate [Example 374]",9.06,82,75,94,,,,
"trifluoroacetic acid {4-oxo-1-[2-(propan-2-yloxy)ethyl]-2-sulfanylidene-1H,2H,3H,4H,5H-pyrrolo[3,2-d]pyrimidin-5-yl}methyl (2R)-1-[2-(2-aminoacetamido)acetyl]pyrrolidine-2-carboxylate [Example 406]",3.42,,,,88,71,0,
"trifluoroacetic acid {4-oxo-1-[2-(propan-2-yloxy)ethyl]-2-sulfanylidene-1H,2H,3H,4H,5H-pyrrolo[3,2-d]pyrimidin-5-yl}methyl N-[2-(2-aminoethoxy)ethyl]carbamate [Example 373]",0.123,68,90,72,,,,
"{4-oxo-1-[2-(propan-2-yloxy)ethyl]-2-sulfanylidene-1H,2H,3H,4H,5H-pyrrolo [3,2-d]pyrimidin-5-yl}methyl 2-[(2S)-2-(benzoyloxy)-N,3-dimethylbutanamido]acetate [Example 401]",0.43,,,,90,8,0,
"{4-oxo-1-[2-(propan-2-yloxy)ethyl]-2-sulfanylidene-1H,2H,3H,4H,5H-pyrrolo[3,2-d]pyrimidin-5-yl}methyl 2-[2-(2-{[(tert-butoxy)carbonyl]amino}acetamido)-N-methylacetamido]acetate [Example 407]",14.6,,,,98,1,0,
"{4-oxo-1-[2-(propan-2-yloxy)ethyl]-2-sulfanylidene-1H,2H,3H,4H,5H-pyrrolo[3,2-d]pyrimidin-5-yl}methyl 2-[2-(acetyloxy)-N-methylacetamido]acetate [Example 400]",0.242,,,,99,26,89,
"{4-oxo-1-[2-(propan-2-yloxy)ethyl]-2-sulfanylidene-1H,2H,3H,4H,5H-pyrrolo[3,2-d]pyrimidin-5-yl}methyl 2-{[(tert-butoxy)carbonyl](methyl)amino}acetate [Example 395]",14.4,,,,97,23,1,
"{4-oxo-1-[2-(propan-2-yloxy)ethyl]-2-sulfanylidene-1H,2H,3H,4H,5H-pyrrolo[3,2-d]pyrimidin-5-yl}methyl (2R)-2-{[(tert-butoxy)carbonyl]amino}propanoate [Example 291]",,,,,,,,Caco-2 Papp (Caco-2 monolayer): 21.9 ×10⁻⁶ cm/s; SGF ([1]; % remaining @ 1 h): 66% @ 1 h; SIF ([2]; % remaining @ 1 h): 30% @ 1 h; human Plasma stability (Plasma Stability; % remaining @ 1 h): 0% @ 1 h
